Results taken from publication PMC10802846 (Cell chemical biology, 2023).
Entries after “also recorded” stand apart in the source; their conditions may differ. Where two headings read alike, the source gives them in different places. Residues, ends and D or L forms follow the SMILES beside them. *: point of attachment. Cbz = O=C(OCc1ccccc1)*

Key:
[1] = target: HDAC3 (Homo sapiens, UniProt O15379+P40337); assay: HDAC3 degradation by Western blot in MDA-MB-231 cells; format: cell-based
[2] = target: T1, HDAC8 (Homo sapiens, UniProt Q9BY41); assay: HDAC8 degradation by Western blot in MDA-MB-231 cells; format: cell-based
T1 sequence (Q9BY41 1-377): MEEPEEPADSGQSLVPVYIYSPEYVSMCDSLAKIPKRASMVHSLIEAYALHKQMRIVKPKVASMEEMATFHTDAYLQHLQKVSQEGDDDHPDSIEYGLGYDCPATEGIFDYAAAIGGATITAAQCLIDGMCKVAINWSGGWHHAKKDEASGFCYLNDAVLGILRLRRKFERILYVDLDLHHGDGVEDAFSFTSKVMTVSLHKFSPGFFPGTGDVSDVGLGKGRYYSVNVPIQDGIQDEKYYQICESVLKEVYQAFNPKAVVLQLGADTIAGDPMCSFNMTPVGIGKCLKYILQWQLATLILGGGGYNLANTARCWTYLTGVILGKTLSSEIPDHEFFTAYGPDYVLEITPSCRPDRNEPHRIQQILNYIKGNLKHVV

[3] = test system: BC cell lines; assay: Colony formation assays, comparison across several BC cell lines; format: cell-based, human; details: alone or in combination
[4] = test system: MDA-MB-231 cells; assay: RNA-seq differential gene expression; format: cell-based, human; details: for number of downregulated genes / number of upregulated genes: 24 h, fold-change≥|2|, p ≤ 0.01
[5] = target: T1, HDAC8; assay: HDAC activity assay; format: biochemical
[6] = test system: MDA-MB-231; assay: Colony formation assay, MDA-MB-231; format: cell-based, human
[7] = target: T2, HDAC1 (Homo sapiens, UniProt Q13547); assay: HDAC activity assay; format: biochemical
T2 sequence (Q13547 whole entry): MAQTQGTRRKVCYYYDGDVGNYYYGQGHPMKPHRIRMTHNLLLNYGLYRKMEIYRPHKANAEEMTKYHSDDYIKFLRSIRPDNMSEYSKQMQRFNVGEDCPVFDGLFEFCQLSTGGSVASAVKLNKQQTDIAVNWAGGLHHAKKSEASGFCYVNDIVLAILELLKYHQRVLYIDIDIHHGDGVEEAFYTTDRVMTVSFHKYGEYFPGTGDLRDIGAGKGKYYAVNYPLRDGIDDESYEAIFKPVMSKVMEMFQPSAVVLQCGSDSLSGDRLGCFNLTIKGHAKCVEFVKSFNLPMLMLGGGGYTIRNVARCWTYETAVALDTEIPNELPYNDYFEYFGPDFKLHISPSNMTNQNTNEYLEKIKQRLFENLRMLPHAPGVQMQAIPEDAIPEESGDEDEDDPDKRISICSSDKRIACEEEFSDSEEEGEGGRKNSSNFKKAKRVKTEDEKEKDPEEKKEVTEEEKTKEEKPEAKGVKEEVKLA

[8] = target: T2, HDAC1; assay: HDAC1 protein level by Western blot in MCF7 and MDA-MB-231 cells; format: cell-based
[9] = target: HDAC2 (Homo sapiens, UniProt Q92769); assay: HDAC2 protein level by Western blot in MCF7 and MDA-MB-231 cells; format: cell-based
Sequence of HDAC2 (Q92769 whole entry): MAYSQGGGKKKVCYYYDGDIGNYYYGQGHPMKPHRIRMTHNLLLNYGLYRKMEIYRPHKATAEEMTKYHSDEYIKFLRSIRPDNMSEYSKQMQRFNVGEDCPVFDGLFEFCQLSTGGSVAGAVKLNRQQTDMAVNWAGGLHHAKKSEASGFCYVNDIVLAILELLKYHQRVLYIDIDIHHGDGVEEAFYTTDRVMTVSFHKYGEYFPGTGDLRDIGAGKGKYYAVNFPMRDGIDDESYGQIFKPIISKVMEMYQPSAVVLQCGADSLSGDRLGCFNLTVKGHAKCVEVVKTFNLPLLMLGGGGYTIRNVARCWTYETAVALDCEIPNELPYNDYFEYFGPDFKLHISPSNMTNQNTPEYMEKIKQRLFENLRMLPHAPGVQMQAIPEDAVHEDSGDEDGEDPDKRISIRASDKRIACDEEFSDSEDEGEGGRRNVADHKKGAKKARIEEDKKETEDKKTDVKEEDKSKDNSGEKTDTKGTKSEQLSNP

[10] = target: HDAC1 and the VHL complex (Homo sapiens, UniProt Q13547); assay: AlphaLISA ternary complex formation, HDAC1; format: binding; details: broad range of YX968 concentrations
Sequence of HDAC1 and the VHL complex (Q13547 whole entry, one chain of several): as the sequence (Q13547 whole entry) above

[11] = test system: acetylated core histones (H3K27ac, H2BK5ac, and H4K8ac); assay: Histone acetylation by Western blot; format: cell-based, human
[12] = test system: acetylated SMC3; assay: Acetylated SMC3 by Western blot in MDA-MB-231 cells; format: cell-based, human; details: YX968 16 nM, 14 h
[13] = test system: cell cycle progression; assay: Cell cycle profiling; format: cell-based; details: 24 h
[14] = test system: MCF7; assay: Colony formation assay, MCF7; format: cell-based, human
[15] = test system: T47D; assay: Colony formation assay, T47D; format: cell-based, human
[16] = test system: BT549; assay: Colony formation assay, BT549; format: cell-based, human
[17] = test system: MDA-MB-468; assay: Colony formation assay, MDA-MB-468; format: cell-based, human
[18] = test system: HCC1806; assay: Colony formation assay, HCC1806; format: cell-based, human
[19] = test system: H1299; assay: Colony formation assay, H1299; format: cell-based, human
[20] = test system: caspase 3 (CASP3); assay: CASP3 cleavage; format: cell-based, human; details: MDA-MB-231, 16 h
[21] = test system: p21; assay: p21 induction by Western blot in MDA-MB-231 cells; format: cell-based, human; details: MDA-MB-231, 16 h
[22] = test system: HDAC1/3/8; assay: HDAC1/3/8 inhibitory activity in vitro, statements across the three isozymes; format: biochemical; details: for HDAC1/3/8 inhibitory potency and selectivity: warhead analogues
[23] = pretreatment with probe, then YX968, MDA-MB-231
[24] = q-value ≤0.05 and fold-change ≥|2.0|

Sequence of HDAC3 (O15379 whole entry): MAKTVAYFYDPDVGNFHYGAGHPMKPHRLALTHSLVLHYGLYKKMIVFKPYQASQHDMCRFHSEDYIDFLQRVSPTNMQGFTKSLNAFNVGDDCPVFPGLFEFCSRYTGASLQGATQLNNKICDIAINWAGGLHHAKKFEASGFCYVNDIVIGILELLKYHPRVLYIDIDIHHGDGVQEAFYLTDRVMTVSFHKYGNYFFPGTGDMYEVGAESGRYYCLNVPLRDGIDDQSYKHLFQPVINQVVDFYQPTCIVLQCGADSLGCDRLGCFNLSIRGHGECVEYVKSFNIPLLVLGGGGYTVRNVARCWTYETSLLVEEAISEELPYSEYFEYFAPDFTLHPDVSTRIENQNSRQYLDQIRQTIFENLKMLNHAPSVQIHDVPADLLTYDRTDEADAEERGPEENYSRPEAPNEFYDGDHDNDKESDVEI
Sequence of HDAC3 (O75376 whole entry partner): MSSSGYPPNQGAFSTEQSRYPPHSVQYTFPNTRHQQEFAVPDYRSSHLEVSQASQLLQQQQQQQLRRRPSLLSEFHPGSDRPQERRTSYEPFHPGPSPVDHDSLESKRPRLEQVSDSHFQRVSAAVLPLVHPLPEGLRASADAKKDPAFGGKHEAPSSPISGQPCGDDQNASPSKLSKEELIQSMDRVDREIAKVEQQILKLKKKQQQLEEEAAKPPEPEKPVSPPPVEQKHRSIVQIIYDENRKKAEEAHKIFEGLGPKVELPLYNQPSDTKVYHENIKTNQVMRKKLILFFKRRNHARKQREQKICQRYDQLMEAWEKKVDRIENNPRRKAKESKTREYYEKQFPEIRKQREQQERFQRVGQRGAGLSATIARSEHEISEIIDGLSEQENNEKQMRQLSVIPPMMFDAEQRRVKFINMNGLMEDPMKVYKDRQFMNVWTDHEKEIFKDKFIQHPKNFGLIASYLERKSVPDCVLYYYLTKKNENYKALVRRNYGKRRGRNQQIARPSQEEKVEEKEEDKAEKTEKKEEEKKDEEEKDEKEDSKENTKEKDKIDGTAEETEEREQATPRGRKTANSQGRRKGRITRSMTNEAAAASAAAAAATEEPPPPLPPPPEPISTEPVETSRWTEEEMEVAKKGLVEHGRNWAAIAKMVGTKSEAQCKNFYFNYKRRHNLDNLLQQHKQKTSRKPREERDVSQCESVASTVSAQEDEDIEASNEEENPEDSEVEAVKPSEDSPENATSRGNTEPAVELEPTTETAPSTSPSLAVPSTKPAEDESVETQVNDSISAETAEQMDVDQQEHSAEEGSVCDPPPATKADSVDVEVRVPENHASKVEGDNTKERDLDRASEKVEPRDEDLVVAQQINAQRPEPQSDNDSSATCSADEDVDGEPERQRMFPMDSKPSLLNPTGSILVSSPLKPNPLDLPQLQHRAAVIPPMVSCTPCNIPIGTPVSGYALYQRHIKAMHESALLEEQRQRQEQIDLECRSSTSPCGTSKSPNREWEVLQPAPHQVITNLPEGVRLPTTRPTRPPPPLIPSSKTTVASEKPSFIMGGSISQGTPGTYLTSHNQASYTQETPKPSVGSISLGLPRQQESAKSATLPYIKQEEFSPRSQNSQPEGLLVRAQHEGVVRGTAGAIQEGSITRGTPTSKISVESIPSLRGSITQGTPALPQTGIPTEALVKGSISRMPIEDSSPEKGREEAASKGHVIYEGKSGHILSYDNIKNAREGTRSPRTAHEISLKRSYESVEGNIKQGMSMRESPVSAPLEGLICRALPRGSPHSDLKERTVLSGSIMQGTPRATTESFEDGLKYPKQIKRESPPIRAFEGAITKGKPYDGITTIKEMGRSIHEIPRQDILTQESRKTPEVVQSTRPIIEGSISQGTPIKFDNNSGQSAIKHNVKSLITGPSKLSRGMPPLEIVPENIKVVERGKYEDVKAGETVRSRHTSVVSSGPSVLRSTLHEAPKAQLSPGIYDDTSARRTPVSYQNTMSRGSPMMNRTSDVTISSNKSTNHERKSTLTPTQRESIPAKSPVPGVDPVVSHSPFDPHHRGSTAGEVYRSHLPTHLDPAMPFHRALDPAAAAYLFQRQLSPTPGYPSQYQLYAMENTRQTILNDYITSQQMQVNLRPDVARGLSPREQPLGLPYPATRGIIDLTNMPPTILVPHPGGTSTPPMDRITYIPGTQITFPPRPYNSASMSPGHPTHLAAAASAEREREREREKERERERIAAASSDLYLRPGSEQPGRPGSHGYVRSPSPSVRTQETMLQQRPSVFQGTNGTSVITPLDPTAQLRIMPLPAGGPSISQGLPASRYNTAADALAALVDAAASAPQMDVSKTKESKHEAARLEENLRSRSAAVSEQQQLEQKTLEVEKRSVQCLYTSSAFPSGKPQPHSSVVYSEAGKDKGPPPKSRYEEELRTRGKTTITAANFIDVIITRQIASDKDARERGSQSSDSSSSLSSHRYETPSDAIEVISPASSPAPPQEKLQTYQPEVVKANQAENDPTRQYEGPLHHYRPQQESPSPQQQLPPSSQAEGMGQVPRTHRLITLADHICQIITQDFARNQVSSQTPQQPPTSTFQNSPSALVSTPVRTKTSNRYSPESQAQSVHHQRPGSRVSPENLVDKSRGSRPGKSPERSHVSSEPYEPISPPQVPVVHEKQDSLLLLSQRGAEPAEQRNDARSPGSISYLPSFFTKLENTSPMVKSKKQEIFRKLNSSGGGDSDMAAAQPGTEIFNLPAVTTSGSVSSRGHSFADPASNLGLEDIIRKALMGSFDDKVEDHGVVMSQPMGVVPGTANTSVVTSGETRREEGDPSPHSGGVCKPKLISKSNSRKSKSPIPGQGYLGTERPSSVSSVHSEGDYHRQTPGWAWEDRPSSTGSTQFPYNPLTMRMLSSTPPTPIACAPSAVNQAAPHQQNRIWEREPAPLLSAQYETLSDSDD
Sequence of HDAC3 (P40337 whole entry): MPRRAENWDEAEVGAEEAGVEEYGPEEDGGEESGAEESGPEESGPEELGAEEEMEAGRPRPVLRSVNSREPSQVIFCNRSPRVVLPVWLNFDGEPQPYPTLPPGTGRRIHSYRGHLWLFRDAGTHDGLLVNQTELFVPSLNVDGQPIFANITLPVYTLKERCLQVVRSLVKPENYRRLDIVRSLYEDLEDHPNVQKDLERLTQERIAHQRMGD
Sequence of HDAC3 (Q15370 whole entry partner): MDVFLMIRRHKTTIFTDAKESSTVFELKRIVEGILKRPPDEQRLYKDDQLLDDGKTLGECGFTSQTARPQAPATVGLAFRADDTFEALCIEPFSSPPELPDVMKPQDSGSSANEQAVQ
Sequence of HDAC3 (Q15369 whole entry partner): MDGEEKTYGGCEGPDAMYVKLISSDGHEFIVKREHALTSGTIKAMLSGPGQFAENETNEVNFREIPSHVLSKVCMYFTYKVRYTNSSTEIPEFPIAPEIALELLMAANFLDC

## Cc1cc2c(C(N)=O)cccc2n1-c1nc2c(c(NCc3ccccc3)n1)COCC2 [CB-5803]
[1]
  effect of pretreatment on YX968-mediated HDAC3 degradation: only slightly rescued
[2]
  effect of pretreatment on YX968-mediated HDAC8 degradation: effectively blocked

## CC(C)C[C@@H](C=O)NC(=O)[C@H](CC(C)C)NC(=O)[C@H](CC(C)C)NC(=O)OCc1ccccc1 [MG132] (Cbz-Leu-Leu-Leu-aldehyde)
[1]; [23]
  effect of pretreatment on YX968-mediated HDAC3 degradation: blocked
[1]; probe at 3 μM
  effect of pretreatment on YX968-mediated HDAC3 degradation: only moderately reversed
[1]; probe at 10 μM
  effect of pretreatment on YX968-mediated HDAC3 degradation: more effectively rescued
[2]; [23]
  effect of pretreatment on YX968-mediated HDAC8 degradation: blocked
[2]; probe at 3 μM
  effect of pretreatment on YX968-mediated HDAC8 degradation: effectively blocked

## NS(=O)(=O)OC[C@@H]1C[C@@H](n2ccc3c(N[C@H]4CCc5ccccc54)ncnc32)C[C@@H]1O [MLN4924]
[1]; [23]
  effect of pretreatment on YX968-mediated HDAC3 degradation: highly effective in blocking
[2]; [23]
  effect of pretreatment on YX968-mediated HDAC8 degradation: highly effective in blocking

## COc1ccc(Cn2ccc3ccc(C(=O)NO)cc32)cc1 [PCI 34051]
[3]
  potency to suppress cell growth vs YX968: less potent than YX968

## Nc1cc(F)ccc1NC(=O)/C=C/c1cnn(C/C=C/c2ccccc2)c1 [RGFP-966]
[3]
  potency to suppress cell growth vs YX968: less potent than YX968

## CCCCNNC(=O)c1ccc(Br)cc1 [UF010]
[4]; UF010 treatment
  number of downregulated genes: 761
  number of upregulated genes: 2,678
[4]; [24]
  number of downregulated DEGs: 572
  number of upregulated DEGs: 1,792

## CC(=O)N[C@H](C(=O)N1C[C@H](O)C[C@H]1C(=O)NCc1ccc(-c2scnc2C)cc1)C(C)(C)C [VH032]
[2]; [23]
  effect of pretreatment on YX968-mediated HDAC8 degradation: effectively competed

## CCCNNC(=O)c1ccc(-c2ccc(NC(=O)CCCCCCC(=O)N[C@H](C(=O)N3C[C@H](O)C[C@H]3C(=O)N[C@@H](C)c3ccc(-c4scnc4C)cc3)C(C)(C)C)cc2)cc1 [XZ9002, reference compound]
[5]
  IC50: 1.09 µM
[6]; MDA-MB-231, 3 μM
  inhibition of clonogenic growth: moderate inhibition

## CCCNNC(=O)c1ccc(N2CCN(CCCCCCCC(=O)N[C@H](C(=O)N3C[C@H](O)C[C@H]3C(=O)N[C@@H](C)c3ccc(-c4scnc4C)cc3)C(C)(C)C)CC2)cc1 [YX968, (2S,4R)-1-((S)-3,3-dimethyl-2-(8-(4-(4-(2-propylhydrazine-1-carbonyl)phenyl)piperazin-1-yl)octanamido)butanoyl)-4-hydroxy-N-((S)-1-(4-(4-methylthiazol-5-yl)phenyl)ethyl)pyrrolidine-2-carboxamide]
[7]
  IC50: 0.591 µM
[8]
  effect on HDAC1 protein level: did not affect; also recorded: not degraded
[9]
  effect on HDAC2 protein level: did not affect; also recorded: not degraded
[10]
  ternary complex formation with HDAC1: not able to induce a complex
[4]; 50 nM
  number of downregulated genes: 41
  number of upregulated genes: 53
[4]; [24]
  significant DEGs: no significant DEGs
[11]; MCF-7 and MDA-MB-231 cells
  levels of acetylated core histones: dose-dependently increased
[11]; MDA-MB-231, 16 h
  concentration at which H3K27ac was weakly detectable: 63 nM
[12]
  levels of acetylated SMC3: increased
[13]; 0.1 μM
  effect on cell cycle: negligibly perturbed; also recorded: did not alter cell cycle
[13]; 1 μM
  effect on cell cycle: strong G1 arrest; also recorded: markedly induced G1 arrest
[14]
  concentration at which clonogenic growth was effectively inhibited: 125 nM
[15]
  concentration at which clonogenic growth was effectively inhibited: 125 nM
[16]
  concentration at which clonogenic growth was effectively inhibited: 125 nM
[17]
  concentration at which clonogenic growth was effectively inhibited: 125 nM
[18]
  concentration at which clonogenic growth was effectively inhibited: 125 nM
[6]; MDA-MB-231
  clonogenic growth suppression: effectively suppressed at a sub-μM concentration
[19]
  clonogenic growth sensitivity: quite resistant
[20]
  CASP3 cleavage (activation): in a dose-dependent manner
  concentration at which weak CASP3 activation was notable: 63 nM
[21]
  concentration at which weak p21 induction was seen: 250 nM

## CC[C@H](NC(=O)[C@H](C)NC)C(=O)N1C[C@@H](O)C[C@H]1Cc1c(-c2[nH]c3cc(F)ccc3c2C[C@@H]2C[C@H](O)CN2C(=O)[C@H](CC)NC(=O)[C@H](C)NC)[nH]c2cc(F)ccc12 [birinapant, reference compound]
[20]
  CASP3 cleavage (activation): activated CASP3

## CC(C)C[C@H](NC(=O)[C@H](Cc1ccccc1)NC(=O)c1cnccn1)B(O)O [bortezomib]
[1]; [23]
  effect of pretreatment on YX968-mediated HDAC3 degradation: could also reverse

## CCCNNC(=O)c1ccc(N2CCN(C(C)=O)CC2)cc1 [compound 14, 4-(4-acetylpiperazin-1-yl)-N′-propylbenzohydrazide]
[22]; HDAC1, HDAC3, HDAC8
  fold less potent than 15 for the three HDAC isozymes: 3- to 7 fold
[22]
  HDAC1/3/8 inhibitory potency and selectivity: preferentially inhibited HDAC3

## CCCNNC(=O)c1ccc(N2CCN(C)CC2)cc1 [compound 15, 4-(4-methylpiperazin-1-yl)-N′-propylbenzohydrazide]
[22]
  HDAC1/3/8 inhibitory potency and selectivity: highest potency among all the new analogues

## CCCNNC(=O)c1ccc(CN2CCN(C(C)=O)CC2)cc1 [compound 16, 4-((4-acetylpiperazin-1-yl)methyl)-N′-propylbenzohydrazide]
[22]
  HDAC1/3/8 inhibitory potency and selectivity: dramatic decline of selectivity and potency
